Measurements: PubChem BioAssay AID2305 (GlaxoSmithKline (GSK), 2010)
Values joined by “and” are separate entries in the source; they are usually repeats but may differ in a detail not shown here. Equal values may be shown once.

System: P. falciparum 3D7 growth, pLDH absorbance
Test: blood-stage malaria parasite growth potency – strain 3D7, dose response (AID 2305)

Work on COc1ccc(-c2csc3nc(C)nc(Cl)c23)cc1OC yielded an IC50 of 360 nM.
COc1ccc(C2CC(=O)C3=C(C2)NC(C)=C(C(=O)OC(C)C)C3c2ccccc2F)cc1OC (stereo unspecified) showed an IC50 of 60 nM.
In the case of COc1cc(C(=O)NCCCN2CCN(c3cc(Cl)ccc3OC)CC2)ccc1-c1nc2cc(Cl)c(Cl)cc2[nH]1, the IC50 is reported as 730 nM.
COc1ccc(OC)c(C=CC(=O)NC2CCC(CN3CCC(c4c[nH]c5ccccc45)CC3)CC2)c1 (stereo unspecified) showed an IC50 of 650 nM.
CCNc1cc(C(=O)N[C@@H](Cc2cccc(Cl)c2)[C@H](O)CNC(C)CCCC(C)C)cc(N2CCCCS2(=O)=O)c1 (stereo partly specified) showed an IC50 of 290 nM.
O=C(Nc1ccc(-c2csc3nccn23)cc1)c1ccc(Cl)cc1 gave an IC50 of 580 nM.
CCCCOC(=O)c1ccc(Nc2cc(C)nc3ccc(OC)cc23)cc1 was tested, and the IC50 was 640 nM.
CC(C)Cc1ccc(N2CCN(CCCCNC(=O)c3ccc(NC(=O)c4ccc(Cl)c(Cl)c4)cc3)CC2)cc1 showed an IC50 of 1200 nM.
CCCc1cc(=O)[nH]c(-n2nc(C)cc2NC(=O)c2cc3ccccc3o2)n1 was tested, and the IC50 was 1110 nM.
Work on O=C(Nc1cccc(CN2CCCN(Cc3cccc(O)c3)CC2)c1)c1cc2ccccc2s1 yielded an IC50 of 360 nM.
With COc1ccc2c(NN=CC=Cc3ccccc3)cc(C)nc2c1 the IC50 was 840 nM.
For c1ccc(CSC2=NNC(c3ccccn3)S2)cc1 (stereo unspecified), the IC50 was 1480 nM.
COc1ccc(Cl)c(CC2c3cc(O)c(Cl)cc3CCN2C)c1 (stereo unspecified) showed an IC50 of 700 nM.
For O=C(c1cccc(-c2noc(C(F)(F)F)n2)c1)N1CCN(c2nsc3ccccc23)CC1, the IC50 was 140 nM.
Compound CCn1ccc2c(N3CCCCS3(=O)=O)cc(C(=O)N[C@@H](Cc3ccccc3)[C@H](O)CNC3CCCCC3)cc21 has an IC50 of 120 nM.
For COc1ccc(CCN(C)CCCN2CCC(NC(=O)c3cccc4c(=O)c5ccccc5[nH]c34)CC2)cc1OC, the IC50 was 690 nM.
FC(F)(F)c1ccc2nc(-c3cccc(-c4ccc(CNCCc5ccncc5)cc4)c3)[nH]c2c1 was tested, and the IC50 was 100 nM.
CN1CCC(Oc2ccc(CN3CC[C@H](NC(=O)c4ccc(Cl)c(Cl)c4)C3)c3ccccc23)C1 (stereo partly specified) gave an IC50 of 880 nM.
Work on CCN(CC)CCNc1cc(C)nc(/N=C(\N)Nc2ccc(Cl)cc2)n1 yielded an IC50 of 130 nM.
For Cc1cc(Br)cnc1CCCCNc1cc(=O)c2ccccc2[nH]1, the IC50 was 1160 nM.
Cc1nc(N)nc(N)c1OCc1ccc(Cl)c(Cl)c1 was tested, and the IC50 was 130 nM.
With Cc1cc(Nc2ccc(C)c(C)c2)n2nc(C)nc2n1 the IC50 was 600 nM.
CC(C)c1cc2c(cc1O)C(Cc1ccccc1Cl)N(C)CC2 (stereo unspecified) gave an IC50 of 730 nM.
COc1ccc2c(=O)c(C3CCC(c4ccc(Cl)cc4)CC3)c(C)[nH]c2c1 (stereo unspecified) was tested, and the IC50 was 650 nM.
In the case of Cc1cccc2[nH]c(-c3cccc(-c4cccc(NC(=O)CC5NC(=O)c6ccccc65)c4)c3)nc12 (stereo unspecified), the IC50 is reported as 1030 nM.
In the case of CN1CCN(c2ccc(-c3cccc(NC(=O)c4cccc([N+](=O)[O-])c4)c3)nn2)CC1, the IC50 is reported as 530 nM.
CCN1CCN(c2cc(C)c3cc(NC(=O)c4ccc(Br)o4)ccc3n2)CC1 was tested, and the IC50 was 750 nM.
For COc1ccc2nccc(CCN3C[C@H](CNCc4ccc5c(n4)NC(=O)CS5)[C@H](O)C3)c2n1, the IC50 was 1460 nM.
With O=C(NCCCN1CCCCC1)c1cccc(Nc2nccc(Nc3ccc(Oc4ccccc4)cc3)n2)c1 the IC50 was 820 nM.
Work on Cc1cc(CNCCCCCCNCc2cccc([N+](=O)[O-])c2)ccc1O yielded an IC50 of 720 nM.
C#CCCOc1ccc2ccccc2c1CNCCCCCCNCc1c(OCCC#C)ccc2ccccc12 showed an IC50 of 810 nM.
In the case of S=C(Nc1ccc2c(c1)OCCO2)NC1CCC(CN2CCC(c3c[nH]c4ccccc34)CC2)CC1 (stereo unspecified), the IC50 is reported as 650 nM and 1000 nM.
With CC(C)(C)Nc1cc(C2CC2)nc(-c2ccccn2)n1 the IC50 was 680 nM.
COC(=O)c1ccc(CC(C)NCC(O)c2ccc(Cl)c(Cl)c2)cc1 (stereo unspecified) was tested, and the IC50 was 1000 nM.
O=C(O)/C=C/c1cccc(F)c1F gave an IC50 of 100 nM.
In the case of N#Cc1cccc(CN2CCCN(c3ccc(NC(=O)c4cccs4)cc3)CC2)c1, the IC50 is reported as 810 nM.
Cc1noc(-c2cccs2)c1C(=O)NCCc1cccc(Cl)c1 showed an IC50 of 460 nM.
With COc1ccc(CNC2Cc3ccccc3C2)cc1-c1ccc(OC)c(S(=O)(=O)NCCN2CCCC2)c1 the IC50 was 770 nM.
Compound O=C(Nc1ccc(SC(F)(F)F)cc1)Nc1ccc(Cl)c(Cl)c1 has an IC50 of 910 nM.
Compound CC[C@H](C)CNC(=O)c1ccc(-c2cccc(CN3CCC(N4CCCC4)CC3)c2)nc1 has an IC50 of 790 nM.
Compound Fc1ccc2[nH]c3c(NCCCN4CCOCC4)ncnc3c2c1 has an IC50 of 710 nM.
O=c1[nH]nc(-c2ccc(N3CCCC3)c([N+](=O)[O-])c2)c2ccccc12 was tested, and the IC50 was 630 nM.
Compound Clc1ccc(-c2cc3c(NCc4ccncc4)nccc3s2)cc1 has an IC50 of 850 nM.
In the case of CCc1ccc(C(=O)NC(=O)c2ccccc2O)cc1, the IC50 is reported as 610 nM.
CC(C)(C)c1ccc(CNC(=O)c2ccc(CNC3CCC(N)CC3)s2)cc1 (stereo unspecified) was tested, and the IC50 was 530 nM.
Work on COC(C(=O)OCCC1CCCN1C)(c1ccccc1)c1ccccc1 (stereo unspecified) yielded an IC50 of 970 nM.
In the case of O=C(/C=C/c1ccc(Cl)c(Cl)c1)NCCCCCN1CCC(NC(=O)Nc2ccc([N+](=O)[O-])cc2)CC1, the IC50 is reported as 690 nM.
CCCCCCN(C(=O)OCc1ccccc1)[C@@H]1CCN(C(=O)OC(C)(C)C)C[C@H]1C(=O)OCC gave an IC50 of 370 nM.
CN1CCN(c2ccnc3ccc(NC(=O)Nc4ccc(-c5ccncc5)c(C(F)(F)F)c4)cc23)CC1 showed an IC50 of 820 nM.
With COCCNCc1ccc(-c2cccc(CNC3CCN(Cc4ccccc4)CC3)c2)cc1 the IC50 was 330 nM.
With O=C(Cc1ccc(NC(=O)c2ccc(O)c(-c3cccc([N+](=O)[O-])c3)c2)cc1)NCCN1CCCCC1 the IC50 was 900 nM.
Compound Cn1nccc1C(=O)NCCNCc1ccc(-c2ccc(-c3nc4ccccc4[nH]3)s2)cc1 has an IC50 of 560 nM.
Cc1nc2nc(N)nc(N)c2c(C)c1Cc1cccc(C(F)(F)F)c1 gave an IC50 of 1290 nM.
In the case of COc1cc(NC(=O)/C=C/c2cccc3cc[nH]c23)ccc1OCCN(C(C)C)C(C)C, the IC50 is reported as 270 nM.
In the case of O=C1[C@H]2C(c3ccc(Cl)c(Cl)c3)N3CC(OCc4ccccc4)CC3(C(=O)O)[C@H]2C(=O)N1c1ccc(Br)cc1 (stereo partly specified), the IC50 is reported as 340 nM.
Cc1ccc(Cc2cccc3nc(N)nc(N)c23)cc1 was tested, and the IC50 was 1150 nM.
OC(c1cc(C(F)(F)F)nc2c(F)cccc12)C1CCCCN1 (stereo unspecified) showed an IC50 of 780 nM.
In the case of COCCn1ccc2c3c(N)nc(N)nc3ccc21, the IC50 is reported as 210 nM.
CN1CCN(c2ccc(Nc3ncc(Cl)c(Nc4cccnc4C(N)=O)n3)cc2)CC1 was tested, and the IC50 was 150 nM.
O=C(/C=C/c1ccc(Cl)c(Cl)c1)NC1CCC(CN2CCC(c3coc4ccccc34)CC2)CC1 (stereo unspecified) gave an IC50 of 830 nM.
With O=C(NCC1CCN(Cc2cccc(C(F)(F)F)c2)C1)c1cc(-c2cccc(C(F)(F)F)c2)cs1 (stereo unspecified) the IC50 was 610 nM.
With NC(=NCc1ccccc1Cl)NCCc1c[nH]c2ccccc12 the IC50 was 110 nM.
COc1ccc(CNCc2cccc(-c3ccc(-c4nc5ccccc5[nH]4)s3)c2)cc1 showed an IC50 of 820 nM.
Compound CC1CN(C(=O)c2sc3ccccc3c2Cl)CC(C)O1 (stereo unspecified) has an IC50 of 90 nM.
With O=C(Nc1cccc(-c2ccc(-c3nc4ccc(C(F)(F)F)cc4[nH]3)cc2)c1)c1ccoc1 the IC50 was 710 nM.
COc1ccc(CC(=O)NC2CCN(c3ccnc4cc(Cl)ccc34)C2)cc1 (stereo unspecified) showed an IC50 of 240 nM.
O=C(N[C@H]1CCN(Cc2ccc(OCCCN3CCCCC3)cc2)C1)c1ccc(Cl)c(Cl)c1 showed an IC50 of 780 nM.
Work on COc1ccccc1CCNc1nc(C)cc(N[C@@H](Cc2ccccc2)C(=O)NCCc2ccccc2)n1 yielded an IC50 of 1110 nM.
O=C(Nc1ccc(OCc2ccccc2)cc1)c1nc2ccccc2nc1Cl showed an IC50 of 250 nM.
Oc1ccc2ncnc(Nc3ccc(OCc4cccc(F)c4)c(Cl)c3)c2c1 gave an IC50 of 990 nM.
With Oc1ccc2[nH]cc(C3CCN(CCCNCc4ccc(-c5ccccc5)cc4)CC3)c2c1 the IC50 was 720 nM.
In the case of CCCc1ccc2c(c1O)CCC(N(CCC)CCC)C2 (stereo unspecified), the IC50 is reported as 890 nM.
Compound CCC1(C)N=C(N)N=C(N)N1c1ccccc1 (stereo unspecified) has an IC50 of 790 nM.
c1ccc(N2CCN(c3cc(-c4cccnc4)nc(-c4ccncc4)n3)CC2)nc1 was tested, and the IC50 was 760 nM.
With COc1ccccc1-c1csc(C(=O)NCC2CCN(Cc3ccc(C(C)(C)C)cc3)C2)c1 (stereo unspecified) the IC50 was 1110 nM.
Compound CCCc1cc(OC)c(CC2c3cc(O)c(C)cc3CCN2C)cc1OC (stereo unspecified) has an IC50 of 700 nM.
COc1cc2nc(Nc3ccc(Oc4ccccc4)cc3)nc(Nc3ccc(Oc4ccccc4)cc3)c2cc1OC gave an IC50 of 930 nM.
Oc1ccc(CCNc2nc(NCc3ccccc3-c3ccc(F)cc3)nc(N3CCNCC3)n2)cc1 showed an IC50 of 1070 nM.
COc1ccc(-c2cc(C(=O)N3CCc4ccccc43)c3ccccc3n2)cc1OC gave an IC50 of 330 nM.
COc1cc(Cc2cnc(N)nc2N)cc(OCCCc2cc(OCc3ccccc3)no2)c1OC gave an IC50 of 1870 nM.
Work on COc1ccc(NC(=O)/C=C/c2ccccc2Cl)cc1OCCN1CCC(N2CCCC2)CC1 yielded an IC50 of 790 nM.
With O=C(NCC1CCN(Cc2ccc(F)cc2)C1)c1cc(-c2cccc(C(F)(F)F)c2)cs1 (stereo unspecified) the IC50 was 960 nM.
COc1ccc2nccc([C@@H](O)CN3CCC(NC(=O)c4ccc(Cl)c(OC)c4)CC3)c2c1 was tested, and the IC50 was 790 nM.
COc1ccc(-c2ccc(Nc3cccc(S(=O)(=O)CCN4CCC(CCN(C)C)CC4)c3)nc2)cn1 showed an IC50 of 1120 nM.
CCOC(=O)CC[C@H](NC(=O)c1ccc(NS(=O)(=O)c2ccc(-c3cnc(N)[nH]c3=O)cc2)cc1)C(=O)OCC showed an IC50 of 170 nM.
Compound CCCCOC(=O)NCCCC[C@H](NC(=O)OC(C)(C)C)C(=O)N[C@H](C(=O)OC(c1ccccc1)c1ccccc1)[C@H]1O[C@@H](n2ccc(=O)[nH]c2=O)[C@@H]2OC(C)(C)O[C@@H]21 has an IC50 of 1090 nM.
Compound CC(C(=O)Nc1ccc(Br)cc1Br)N1CCN(C(=O)c2ccco2)CC1 (stereo unspecified) has an IC50 of 750 nM.
Work on COc1ccc(CNCc2ccc(F)cc2)cc1-c1ccc(S(=O)(=O)NCCN2CCCC2)s1 yielded an IC50 of 710 nM.
Work on CC(CNc1nc(NCC(c2ccccc2)c2ccccc2)c2[nH]cnc2n1)c1ccccc1 (stereo unspecified) yielded an IC50 of 950 nM.
For O=[N+]([O-])c1cccc(-c2ccc(C=NNc3cc(N4CCCC4)nc(N4CCCC4)n3)o2)c1, the IC50 was 710 nM.
With CCCC(CNCc1cccc(OCC)c1)CNc1cc(=O)c2ccccc2[nH]1 (stereo unspecified) the IC50 was 850 nM.
Compound c1ccc(-c2ccc3c(Nc4ccc5[nH]ccc5c4)ccnc3c2)nc1 has an IC50 of 940 nM.
c1ccc(-c2csc(Nc3nc4cc5c(cc4s3)OCO5)n2)nc1 gave an IC50 of 580 nM.
CCC(C)NS(=O)(=O)c1ccc2nc(Nc3ccc(C)cc3)n(C3CCCCC3C)c2c1 (stereo unspecified) showed an IC50 of 590 nM.
Work on Cc1ccc(-c2nc(Nc3ccncc3)c3ccccc3n2)s1 yielded an IC50 of 830 nM.
N#Cc1cccc(-c2cnc(N)c(-c3nc4ccc(S(N)(=O)=O)cc4[nH]3)c2)c1 gave an IC50 of 640 nM.
Work on CN1CCN(CCCSc2ccc3c(c2)ncn3-c2cc(OCc3ccccc3C(F)(F)F)c(C(N)=O)s2)CC1 yielded an IC50 of 440 nM.
For O=c1sn(-c2csc3ccccc23)c2ccccc12, the IC50 was 340 nM.
CCOc1cc(C(=O)NCCCN2CCCCC2C)ccc1-c1nc2ccc(Cl)cc2[nH]1 (stereo unspecified) showed an IC50 of 1070 nM.
With CCN(CC)S(=O)(=O)n1ncc2c3c(N)nc(N)nc3ccc21 the IC50 was 50 nM.
Compound CC(CN(C)C)C(=O)Nc1cccc(-c2cccc(-c3nc4ccc(F)cc4[nH]3)c2)c1 (stereo unspecified) has an IC50 of 830 nM.
